The results in this text go back to patent US7897602B2, “Indolinone compounds as kinase inhibitors” (Development Center for Biotechnology, priority 2009, dated 2011).

One assay concerns the target T1, VEGFR2 kinase (Homo sapiens, UniProt P35968).
T1 construct: recombinant N-terminal 6×His-tagged VEGFR2 kinase domain construct expressed by baculovirus; 6xHis (N); made in house
Put plainly: VEGFR2 kinase assay (33P incorporation into Poly(Glu-Tyr)). The format is biochemical. The following applies: 500 nM test compound; read-out: Inhibition at 500 nM (%) VEGFr-2. An outline of the steps:
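Recombinant baculovirus-expressed N-terminal His6-tagged VEGFR2 kinase domain (6.25 ng) phosphorylated poly(Glu-Tyr) 4:1 with 100 μM ATP plus [33P]-γ-ATP in MOPS pH 7.0, 30 °C, 30 min. Test compound was at 500 nM (4% DMSO). Filter-retained radioactivity relative to DMSO control gave % inhibition.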

The target of a further assay is T2, Aurora A kinase (Homo sapiens, UniProt O14965).
T2 construct: purchased Upstate
T2 sequence (O14965 1-403): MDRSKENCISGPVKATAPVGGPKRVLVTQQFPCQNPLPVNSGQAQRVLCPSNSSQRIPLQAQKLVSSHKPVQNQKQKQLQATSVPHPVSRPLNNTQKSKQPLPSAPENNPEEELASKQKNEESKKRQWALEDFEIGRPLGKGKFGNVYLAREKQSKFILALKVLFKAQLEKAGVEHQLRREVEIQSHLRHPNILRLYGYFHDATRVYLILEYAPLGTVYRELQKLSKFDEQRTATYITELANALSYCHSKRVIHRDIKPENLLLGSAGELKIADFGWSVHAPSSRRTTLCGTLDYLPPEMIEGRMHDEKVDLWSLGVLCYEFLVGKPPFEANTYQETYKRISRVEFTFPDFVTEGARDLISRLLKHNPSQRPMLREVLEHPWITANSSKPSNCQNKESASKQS
The experiment in a line: Aurora A kinase assay ([γ-33P]ATP, CHOCKtide substrate). The format is biochemical. The following applies: for inhibition at 1 µM: 1.0 μM test compound. An outline of the steps:
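Radiometric filter-binding format: 33P incorporation into CHOCKtide counted after acid stop and filtration. Reactions ran 30 min at 33 °C, Aurora A with 10 μM ATP, Aurora B with 40 μM ATP. IC50 taken as concentration giving half-maximal kinase inhibition.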

The inhibition is how much of the control response was suppressed. By IC50 is commonly meant the concentration at which inhibition is half-maximal. Lower therefore signals greater potency in that assay.

T1 sequence (P35968 834-1162 limits assumed): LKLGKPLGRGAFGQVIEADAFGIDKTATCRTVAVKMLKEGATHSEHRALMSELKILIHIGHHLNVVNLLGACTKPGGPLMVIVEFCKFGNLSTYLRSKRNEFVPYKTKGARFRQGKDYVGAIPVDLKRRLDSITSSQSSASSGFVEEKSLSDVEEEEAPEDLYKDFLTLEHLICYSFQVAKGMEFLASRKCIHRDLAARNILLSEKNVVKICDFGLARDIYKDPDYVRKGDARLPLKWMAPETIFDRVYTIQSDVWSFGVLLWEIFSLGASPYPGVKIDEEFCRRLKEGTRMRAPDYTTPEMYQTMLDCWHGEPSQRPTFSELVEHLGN

As for `O=C(O)CCc1c(/C=C2\C(=O)Nc3ccc(-c4ccc(F)cc4)cc32)[nH]c2c1C(=O)CCC2` [DCB-70109, (Z)-5-(4-fluorophenyl)-3-((3-carboxyethyl-4-oxo-4,5,6,7-tetrahydro-1H-indol-2-yl)methylene)indolin-2-one], the inhibition at 0.5 µM at VEGFR2 kinase amounted to 58.6%. Besides, the inhibition at 1 µM against Aurora A kinase amounted to 69.1%.
As for `O=C(O)CCc1c(/C=C2\C(=O)Nc3ccc(S(=O)(=O)N4CCCCC4)cc32)[nH]c2c1C(=O)CCC2` [DCB-70114, (Z)-5-(piperidin-1-ylsulfonyl)-3-((3-carboxyethyl-4-oxo-4,5,6,7-tetrahydro-1H-indol-2-yl)methylene)indolin-2-one], the inhibition at 0.5 µM at VEGFR2 kinase is 22.6%. At Aurora A kinase, this compound yielded an IC50 of 14 nM and an inhibition at 1 µM of 99.9%.
Turning to `C=CS(=O)(=O)c1ccc2c(c1)/C(=C/c1[nH]c3c(c1CCC(=O)O)C(=O)CCC3)C(=O)N2` [DCB-70115, (Z)-5-vinylsulfonyl-3-((3-carboxyethyl-4-oxo-4,5,6,7-tetrahydro-1H-indol-2-yl)methylene)indolin-2-one], at VEGFR2 kinase, the inhibition at 0.5 µM is 52.2%. Moreover, at Aurora A kinase, the inhibition at 1 µM is 99.4%.
In the same order, the values of `CCS(=O)(=O)c1ccc2c(c1)/C(=C/c1[nH]c3c(c1CCC(=O)O)C(=O)CCC3)C(=O)N2` [DCB-70116, (Z)-5-ethylsulfonyl-3-((3-carboxyethyl-4-oxo-4,5,6,7-tetrahydro-1H-indol-2-yl)methylene)indolin-2-one] are 47.9% and 100%.
Turning to `CNS(=O)(=O)c1ccc2c(c1)/C(=C/c1[nH]c3c(c1CCC(=O)N1CCN(C)CC1)C(=O)CCC3)C(=O)N2` [DCB-70117], the inhibition at 0.5 µM at VEGFR2 kinase stood at 43.3%. This compound also registered an inhibition at 1 µM against Aurora A kinase of 34.9%.
For `CCOC(=O)CCc1c(/C=C2\C(=O)Nc3ccc(NS(=O)(=O)CC)cc32)[nH]c2c1C(=O)CCC2` [DCB-70118, (Z)-5-ethylsulfonamido-3-((3-(3-ethoxy-3-oxopropyl)-4-oxo-4,5,6,7-tetrahydro-1H-indol-2-yl)methylene)indolin-2-one], the inhibition at 0.5 µM at VEGFR2 kinase came out at 51.9%. This compound also registered an inhibition at 1 µM against Aurora A kinase of 81.2%.
Regarding `CCS(=O)(=O)Nc1ccc2c(c1)/C(=C/c1[nH]c3c(c1CCC(=O)O)C(=O)CCC3)C(=O)N2` [DCB-70119, (Z)-5-ethylsulfonamido-3-((3-carboxyethyl-4-oxo-4,5,6,7-tetrahydro-1H-indol-2-yl)methylene)indolin-2-one], the inhibition at 0.5 µM at VEGFR2 kinase came out at 33.9%. This compound also returned an inhibition at 1 µM on Aurora A kinase of 95.4%.
In the same order, the values of `CN1CCN(C(=O)CCc2c(/C=C3\C(=O)Nc4ccc(S(=O)(=O)N5CCCC5)cc43)[nH]c3c2C(=O)CCC3)CC1` [DCB-70120, (Z)-3-((3-(3-(4-methylpiperazin-l-yl)-3-oxopropyl)-4-oxo-4,5,6,7-tetrahydro-1H-indol-2-yl)methylene)-5-(pyrrolidin-1-ylsulfonyl)indolin-2-one] are 17.6% and 50.5%.
With `CN(C)S(=O)(=O)c1ccc2c(c1)/C(=C/c1[nH]c3c(c1CCC(=O)O)C(=O)CCC3)C(=O)N2` [DCB-70121, (Z)-5-(N,N-dimethylsulfamoyl)-3-((3-carboxyethyl-4-oxo-4,5,6,7-tetrahydro-1H-indol-2-yl)methylene)indolin-2-one], on VEGFR2 kinase, the inhibition at 0.5 µM is 19.6%. Besides, at Aurora A kinase, at 1 µM the inhibition was 97.9%.
The corresponding values for `CCOC(=O)CCc1c(/C=C2\C(=O)Nc3cc(F)ccc32)[nH]c2c1C(=O)CCC2` [DCB-70122, (Z)-6-fluoro-3-((3-(3-ethoxy-3-oxopropyl)-4-oxo-4,5,6,7-tetrahydro-1H-indol-2-yl)methylene)indolin-2-one] are 84% and 34.1%.
In the same order, the values of `O=C(O)CCc1c(/C=C2\C(=O)Nc3cc(F)ccc32)[nH]c2c1C(=O)CCC2` [DCB-70123, (Z)-6-fluoro-3-((3-carboxyethyl-4-oxo-4,5,6,7-tetrahydro-1H-indol-2-yl)methylene)indolin-2-one] are 90.8% and 78.1%.
In the same order, the values of `CCN(CC)C(=O)CCc1c(/C=C2\C(=O)Nc3ccc(F)cc32)[nH]c2c1C(=O)CCC2` [DCB-70124, (Z)-N,N-diethyl-3-(2-((5-fluoro-2-oxoindolin-3-ylidene)methyl)-4-oxo-4,5,6,7-tetrahydro-1H-indol-3-yl)propanamide] are 72.5% and 11.9%.
For the compound `O=C1Nc2ccc(F)cc2/C1=C/c1[nH]c2c(c1CCC(=O)N1CCOCC1)C(=O)CCC2` [DCB-70125, (Z)-5-fluoro-3-((3-(3-morpholino-3-oxopropyl)-4-oxo-4,5,6,7-tetrahydro-1H-indol-2-yl)methylene)indolin-2-one], on VEGFR2 kinase, the inhibition at 0.5 µM was 83.4%. The compound also gave an inhibition at 1 µM on Aurora A kinase of 39.7%.
In the same order, the values of `CCOC(=O)CCc1c(/C=C2\C(=O)Nc3cc(-c4ccc5c(c4)OCO5)ccc32)[nH]c2c1C(=O)CCC2` [DCB-70128, (Z)-ethyl 3-(2-((6-(benzo[d][1,3]dioxol-5-yl)-2-oxoindolin-3-ylidene)methyl)-4-oxo-4,5,6,7-tetrahydro-1H-indol-3-yl)propanoate] are 19.3% and 5.1%.
In the same order, the values of `CCOC(=O)CCc1c(/C=C2\C(=O)Nc3ccc(NC(=O)Nc4cccc5ccccc45)cc32)[nH]c2c1C(=O)CCC2` [DCB-70129, (Z)-ethyl 3-(2-((5-(3-naphthalen-1-ylureido)-2-oxoindolin-3-ylidene)methyl)-4-oxo-4,5,6,7-tetrahydro-1H-indol-3-yl)propanoate] are 88% and 15.6%.
With `CCOC(=O)CCc1c(/C=C2\C(=O)Nc3cc(Br)ccc32)[nH]c2c1C(=O)CCC2` [DCB-70130, (Z)-ethyl 3-(2-((6-bromo-2-oxoindolin-3-ylidene)methyl)-4-oxo-4,5,6,7-tetrahydro-1H-indol-3-yl)propanoate], on VEGFR2 kinase, the inhibition at 0.5 µM was found to be 69.8%. 1 µM produced 22.7% inhibition against Aurora A kinase.
Take `CCOC(=O)CCc1c(/C=C2\C(=O)Nc3ccc(NCc4ccccc4)cc32)[nH]c2c1C(=O)CCC2` [DCB-70131, (Z)-ethyl 3-(2-((5-(benzylamino)-2-oxoindolin-3-ylidene)methyl)-4-oxo-4,5,6,7-tetrahydro-1H-indol-3-yl)propanoate]: the inhibition at 0.5 µM on VEGFR2 kinase is 65.9%. The inhibition at 1 µM against Aurora A kinase stood at 70.7%.
Regarding `O=C(O)CCc1c(/C=C2\C(=O)Nc3ccc(NCc4ccccc4)cc32)[nH]c2c1C(=O)CCC2` [DCB-70132, (Z)-3-(2-((5-(benzylamino)-2-oxoindolin-3-ylidene)methyl)-4-oxo-4,5,6,7-tetrahydro-1H-indol-3-yl)propanoic acid], the inhibition at 0.5 µM on VEGFR2 kinase was 15.8%. Moreover, on Aurora A kinase, testing at 1 µM gave an inhibition of 33.4%.
The corresponding values for `O=C(O)CCc1c(/C=C2\C(=O)Nc3cc(Br)ccc32)[nH]c2c1C(=O)CCC2` [DCB-70133, (Z)-3-(2-((6-bromo-2-oxoindolin-3-ylidene)methyl)-4-oxo-4,5,6,7-tetrahydro-1H-indol-3-yl)propanoic acid] are 54.2% and 2.6%.
For the compound `CCOC(=O)CCc1c(/C=C2\C(=O)Nc3ccc(NC(=O)Nc4ccccc4)cc32)[nH]c2c1C(=O)CCC2` [DCB-70134, (Z)-ethyl 3-(4-oxo-2-((2-oxo-5-(3-phenylureido)indolin-3-ylidene)methyl)-4,5,6,7-tetrahydro-1H-indol-3-yl)propanoate], the inhibition at 0.5 µM on VEGFR2 kinase worked out at 20.7%. Besides, testing at 1 µM on Aurora A kinase gave an inhibition of 16.4%.
As to `CCOC(=O)CCc1c(/C=C2\C(=O)Nc3ccc(NC(=O)Nc4ccc(Br)cc4)cc32)[nH]c2c1C(=O)CCC2` [DCB-70135, (Z)-ethyl 3-(2-((5-(3-(4-bromophenyl)ureido)-2-oxoindolin-3-ylidene)methyl)-4-oxo-4,5,6,7-tetrahydro-1H-indol-3-yl)propanoate], the inhibition at 0.5 µM at VEGFR2 kinase was 44.6%. This compound also yielded an inhibition at 1 µM at Aurora A kinase of 7.4%.
The corresponding values for `CCOC(=O)CCc1c(/C=C2\C(=O)Nc3ccc(NC(=O)Nc4ccc(F)cc4)cc32)[nH]c2c1C(=O)CCC2` [DCB-70136, (Z)-ethyl 3-(2-((5-(3-(4-fluorophenyl)ureido)-2-oxoindolin-3-ylidene)methyl)-4-oxo-4,5,6,7-tetrahydro-1H-indol-3-yl)propanoate] are 31.7% and 26.4%.
In the same order, the values of `CCOC(=O)CCc1c(/C=C2\C(=O)Nc3ccc(NC(=O)Nc4ccc(Cl)c(C(F)(F)F)c4)cc32)[nH]c2c1C(=O)CCC2` [DCB-70137, (Z)-ethyl 3-(2-((5-(3-(4-chloro-3-(trifluoromethyl)phenyl)ureido)-2-oxoindolin-3-ylidene)methyl)-4-oxo-4,5,6,7-tetrahydro-1H-indol-3-yl)propanoate] are 82.9% and 12.6%.
